Converted amounts (≈) assume the structure as drawn. The source made the active and inactive calls. The calls are words filed in the database; no cut-off is given here.
Key:
Klebsiella pneumoniae [1] = assay: Antibacterial activity against Klebsiella pneumoniae ATCC 10031 in presence of 19 umol/L Zn2+ by broth microdilution method; type: functional
Klebsiella pneumoniae [2] = assay: Antibacterial activity against Klebsiella pneumoniae ATCC 14581 by microbroth dilution assay; type: functional
Klebsiella pneumoniae [3] = assay: Antibacterial activity against Klebsiella pneumoniae ATCC 14581 in presence of 2.5 mmol/L Ca2+ by broth microdilution method; type: functional
Staphylococcus aureus [4] = assay: Inhibition of biofilm formation in Staphylococcus aureus ATCC 29213 at 6.25 ug/ml by crystal violet staining assay relative to control; type: functional
Klebsiella pneumoniae [5] = assay: Antibacterial activity against Klebsiella pneumoniae ATCC 14581 in presence of 20 umol/L Fe3+ by broth microdilution method; type: functional
Pseudomonas aeruginosa [6] = assay: Antibacterial activity against Pseudomonas aeruginosa ATCC 9027 in presence of 4.50 mmol/L K+ by broth microdilution method; type: functional
Klebsiella pneumoniae [7] = assay: Inhibition of biofilm formation in Klebsiella pneumoniae ATCC 10031 by crystal violet staining assay; type: functional, organism-based; conditions: dose 0.78-25 µg/ml
Staphylococcus aureus [8] = assay: Antibacterial activity against methicillin resistant Staphylococcus aureus NCTC 10442 in presence of 140 mmol/L Na+ by broth microdilution method; type: functional
Klebsiella pneumoniae [9] = assay: Antibacterial activity against Klebsiella pneumoniae ATCC 10031 assessed as reduction in bacterial load at 4 times MIC measured after 2 hrs by time kill assay relative to control; type: functional; parameters: scale not given: the % may be the effect or the level left
Escherichia coli [10] = assay: Antibacterial activity against Escherichia coli ATCC 25922 by microbroth dilution assay; type: functional
Staphylococcus aureus [11] = assay: Antibacterial activity against methicillin resistant Staphylococcus aureus NCTC 10442 by microbroth dilution assay; type: functional
Klebsiella pneumoniae [12] = assay: Antibacterial activity against Klebsiella pneumoniae ATCC 10031 in presence of 4.5 mmol/L K+ by broth microdilution method; type: functional
Klebsiella pneumoniae [13] = assay: Antibiofilm activity against 24 hrs preformed biofilm in Klebsiella pneumoniae ATCC 10031 assessed as reduction in biofilm viability at 6.25 ug/ml relative to control; type: functional; conditions: dose 6.25 µg/ml
Staphylococcus aureus [14] = assay: Antibacterial activity against Staphylococcus aureus ATCC 29213 by microbroth dilution assay; type: functional
[15] = Cytotoxicity against HEK293 cells assessed as cell survival rate at 3.125 ug/ml by CCK-8 assay relative to control; type: toxicity, cell-based; conditions: human, at 3.125 µg/mL, read-out: Activity
Klebsiella pneumoniae [16] = assay: Antibiofilm activity against 24 hrs preformed biofilm in Klebsiella pneumoniae ATCC 10031 assessed as reduction in biofilm viability at 3.125 ug/ml relative to control; type: functional; conditions: dose 3.125 µg/ml
Staphylococcus aureus [17] = assay: Induction of resistance development in Staphylococcus aureus ATCC 29213 assessed as fold increase in MIC treated over 20 serial passages by microdilution assay; type: functional
Pseudomonas aeruginosa [18] = assay: Antibacterial activity against Pseudomonas aeruginosa ATCC 9027 infected in cyclophosphamide immunosuppressed keratitis mouse model assessed as reduction in corneal injury at 10 mg/ml administrated tropically; type: functional, organism-based
[19] = Cytotoxicity against HEK293 cells assessed as cell survival rate at 12.5 ug/ml by CCK-8 assay relative to control; type: toxicity, cell-based; conditions: human, at 12.5 µg/mL, read-out: Activity
Klebsiella pneumoniae [20] = assay: Antibiofilm activity against 24 hrs preformed biofilm in Klebsiella pneumoniae ATCC 10031 assessed as reduction in biofilm viability at 25 ug/ml relative to control; type: functional; conditions: dose 25 µg/ml
Escherichia coli [21] = assay: Antibacterial activity against Escherichia coli ATCC 25922 in presence of 140 mmol/L Na+ by broth microdilution method; type: functional
Staphylococcus aureus [22] = assay: Inhibition of biofilm formation in Staphylococcus aureus ATCC 29213 at 0.78 ug/ml by crystal violet staining assay relative to control; type: functional
[23] = Cytotoxicity against mouse NCTC clone 929 cells assessed as cell survival rate at 3.125 ug/ml by CCK-8 assay relative to control; type: toxicity, cell-based; conditions: NCTC clone 929 (L929) cells, at 3.125 µg/mL, read-out: Activity
Staphylococcus aureus [24] = assay: Antibacterial activity against methicillin resistant Staphylococcus aureus N315 in presence of 20 umol/L Fe3+ by broth microdilution method; type: functional
[25] = Selectivity index, ratio of CC50 for cytotoxicity against HEK293 cells to MIC for antibacterial activity against Staphylococcus aureus ATCC 29213; type: toxicity, cell-based; conditions: human, read-out: Selectivity Index
[26] = Cytotoxicity against HEK293 cells assessed as cell survival rate at 25 ug/ml by CCK-8 assay relative to control; type: toxicity, cell-based; conditions: human, at 25 µg/mL, read-out: Activity
Staphylococcus aureus [27] = assay: Antibacterial activity against methicillin resistant Staphylococcus aureus NCTC 10442 in presence of 1 mmol/L Mg2+ by broth microdilution method; type: functional
Staphylococcus aureus [28] = assay: Antibacterial activity against Staphylococcus aureus ATCC 29213 assessed as log reduction in bacterial load at 8 times MIC measured after 2 hrs by time kill assay; type: functional
Staphylococcus aureus [29] = assay: Antibacterial activity against Staphylococcus aureus ATCC 29213 in presence of 20 umol/L Fe2+ by broth microdilution method; type: functional
Staphylococcus aureus [30] = assay: Antibacterial activity against Staphylococcus aureus ATCC 29213 in presence of 1 mmol/L Mg2+ by broth microdilution method; type: functional
[31] = Selectivity index, ratio of CC50 for cytotoxicity against mouse NCTC clone 929 cells to MIC for antibacterial activity against Klebsiella pneumoniae ATCC 10031; type: toxicity, cell-based; conditions: read-out: Selectivity Index
Staphylococcus aureus [32] = assay: Antibacterial activity against methicillin resistant Staphylococcus aureus N315 in presence of 2.5 mmol/L Ca2+ by broth microdilution method; type: functional
Staphylococcus aureus [33] = assay: Antibacterial activity against methicillin resistant Staphylococcus aureus N315 in presence of 20 umol/L Fe2+ by broth microdilution method; type: functional
Escherichia coli [34] = assay: Antibacterial activity against Escherichia coli ATCC 25922 in presence of 1 mmol/L Mg2+ by broth microdilution method; type: functional
Klebsiella pneumoniae [35] = assay: Antibacterial activity against Klebsiella pneumoniae ATCC 10031 assessed as loss in membrane integrity at 8 times MIC incubated for 4 hrs by LIVE/DEAD BacLight bacterial viability assay; type: functional, organism-based; conditions: Cell membrane
Klebsiella pneumoniae [36] = assay: Antibiofilm activity against 24 hrs preformed biofilm in Klebsiella pneumoniae ATCC 10031 assessed as reduction in biofilm viability at 12.5 ug/ml relative to control; type: functional; conditions: dose 12.5 µg/ml
Klebsiella pneumoniae [37] = assay: Antibacterial activity against Klebsiella pneumoniae ATCC 14581 in presence of 1 mmol/L Mg2+ by broth microdilution method; type: functional
Klebsiella pneumoniae [38] = assay: Antibacterial activity against Klebsiella pneumoniae ATCC 10031 in presence of 1 mmol/L Mg2+ by broth microdilution method; type: functional
[39] = Selectivity index, ratio of CC50 for cytotoxicity against mouse NCTC clone 929 cells to MIC for antibacterial activity against Klebsiella pneumoniae ATCC 14581; type: toxicity, cell-based; conditions: read-out: Selectivity Index
Klebsiella pneumoniae [40] = assay: Antibacterial activity against Klebsiella pneumoniae ATCC 10031 in presence of 20 umol/L Fe3+ by broth microdilution method; type: functional
Klebsiella pneumoniae [41] = assay: Antibacterial activity against Klebsiella pneumoniae ATCC 10031 by microbroth dilution assay; type: functional
Pseudomonas aeruginosa [42] = assay: Antibacterial activity against Pseudomonas aeruginosa ATCC 9027 in presence of 20 umol/L Fe3+ by broth microdilution method; type: functional

`CCCCCCCN1c2ccccc2Sc2ccc(OCC(=O)N[C@@H](CCCNC(=N)N)C(=O)N[C@@H](CCCNC(=N)N)C(N)=O)cc21` gave an MIC (Klebsiella pneumoniae [1]) of 6.25 µg/mL, an MIC (Klebsiella pneumoniae [2]) of 3.12 µg/mL (≈ 4.58 µM) and an MIC (Klebsiella pneumoniae [3]) of 3.12 µg/mL. The inhibition at 6.25 µg/mL (Staphylococcus aureus [4]) was 95.1%, the MIC (Klebsiella pneumoniae [5]) was 6.25 µg/mL and the MIC (Pseudomonas aeruginosa [6]) was 6.25 µg/mL. For the same compound, the inhibition (Klebsiella pneumoniae [7]) was “Dose-Dependent Effect”, the MIC (Staphylococcus aureus [8]) was 1.56 µg/mL and the Activity (Klebsiella pneumoniae [9]) was over 99.9%. It also gave an MIC (Escherichia coli [10]) of 3.12 µg/mL (≈ 4.58 µM), an MIC (Staphylococcus aureus [11]) of 1.56 µg/mL (≈ 2.28 µM) and an MIC (Klebsiella pneumoniae [12]) of 3.12 µg/mL. The Activity (Klebsiella pneumoniae [13]) was 10.44%, the MIC (Staphylococcus aureus [14]) was 1.56 µg/mL (≈ 2.28 µM) and the viability at 3.125 ug/ml [15] was 95.4%. The Activity (Klebsiella pneumoniae [16]) was 34.26%, the fold change (FC) (Staphylococcus aureus [17]) was under 4 and the Activity (Pseudomonas aeruginosa [18]) was “inactive”. It also gave a viability at 12.5 ug/ml [19] of 80.6%, an Activity (Klebsiella pneumoniae [20]) of 4.13% and an MIC (Escherichia coli [21]) of 3.12 µg/mL. For the same compound, the inhibition at 0.78 µg/mL (Staphylococcus aureus [22]) was 45%, the viability at 3.125 ug/ml [23] was 97.9% and the MIC (Staphylococcus aureus [24]) was 1.56 µg/mL. The selectivity ratio [25] was 8, the viability at 25 ug/ml [26] was 74.4% and the MIC (Staphylococcus aureus [27]) was 3.12 µg/mL. For the same compound, the “log(activity)” value (Staphylococcus aureus [28]) was over 3, the MIC (Staphylococcus aureus [29]) was 1.56 µg/mL and the MIC (Staphylococcus aureus [30]) was 3.12 µg/mL. It also gave a selectivity ratio [31] of 8, an MIC (Staphylococcus aureus [32]) of 3.12 µg/mL and an MIC (Staphylococcus aureus [33]) of 1.56 µg/mL. The MIC (Escherichia coli [34]) was 3.12 µg/mL, the Activity (Klebsiella pneumoniae [35]) was “Active” and the Activity (Klebsiella pneumoniae [36]) was 5.88%. The MIC (Klebsiella pneumoniae [37]) was 3.12 µg/mL, the MIC (Klebsiella pneumoniae [38]) was 3.12 µg/mL and the selectivity ratio [39] was 8. The MIC (Klebsiella pneumoniae [40]) was 6.25 µg/mL, the MIC (Klebsiella pneumoniae [41]) was 3.12 µg/mL (≈ 4.58 µM) and the MIC (Pseudomonas aeruginosa [42]) was 6.25 µg/mL.
